This note sets out measurements from US20250215013A1, “SUBSTITUTED TRICYCLIC COMPOUNDS AS PARP INHIBITORS AND THE USE THEREOF” (IMPACT THERAPEUTICS (SHANGHAI), INC., priority 2022, published 2025).

Experiment [1] has as its target recombinant poly(ADP-ribose) polymerase 2 (PARP2). Nature of the experiment: PARP2 chemiluminescent assay. The class given is biochemical. The note with it: inhibition of PARP2 enzyme activity, chemiluminescence.
The test system of experiment [2] is MDA-MB-436 cells. Nature of the experiment: Growth inhibition assay against BRCA mutant human breast cancer MDA-MB-436 cell line (CCK-8). The class given is cell-based. Conditions: proliferation of MDA-MB-436 cells, 7 days.
Experiment [3] has as its target PDE3A (Homo sapiens (Human), UniProt Q14432). Nature of the experiment: PDE3A fluorescence polarization (FP) assay. Type of experiment: biochemical. Conditions: PDE3A enzyme activity, FAM-cAMP substrate.
Experiment [4] has as its target recombinant poly(ADP-ribose) polymerase 1 (PARP1) (Homo sapiens (Human), UniProt P09874).

PDE3A, sequence (Q14432 whole entry): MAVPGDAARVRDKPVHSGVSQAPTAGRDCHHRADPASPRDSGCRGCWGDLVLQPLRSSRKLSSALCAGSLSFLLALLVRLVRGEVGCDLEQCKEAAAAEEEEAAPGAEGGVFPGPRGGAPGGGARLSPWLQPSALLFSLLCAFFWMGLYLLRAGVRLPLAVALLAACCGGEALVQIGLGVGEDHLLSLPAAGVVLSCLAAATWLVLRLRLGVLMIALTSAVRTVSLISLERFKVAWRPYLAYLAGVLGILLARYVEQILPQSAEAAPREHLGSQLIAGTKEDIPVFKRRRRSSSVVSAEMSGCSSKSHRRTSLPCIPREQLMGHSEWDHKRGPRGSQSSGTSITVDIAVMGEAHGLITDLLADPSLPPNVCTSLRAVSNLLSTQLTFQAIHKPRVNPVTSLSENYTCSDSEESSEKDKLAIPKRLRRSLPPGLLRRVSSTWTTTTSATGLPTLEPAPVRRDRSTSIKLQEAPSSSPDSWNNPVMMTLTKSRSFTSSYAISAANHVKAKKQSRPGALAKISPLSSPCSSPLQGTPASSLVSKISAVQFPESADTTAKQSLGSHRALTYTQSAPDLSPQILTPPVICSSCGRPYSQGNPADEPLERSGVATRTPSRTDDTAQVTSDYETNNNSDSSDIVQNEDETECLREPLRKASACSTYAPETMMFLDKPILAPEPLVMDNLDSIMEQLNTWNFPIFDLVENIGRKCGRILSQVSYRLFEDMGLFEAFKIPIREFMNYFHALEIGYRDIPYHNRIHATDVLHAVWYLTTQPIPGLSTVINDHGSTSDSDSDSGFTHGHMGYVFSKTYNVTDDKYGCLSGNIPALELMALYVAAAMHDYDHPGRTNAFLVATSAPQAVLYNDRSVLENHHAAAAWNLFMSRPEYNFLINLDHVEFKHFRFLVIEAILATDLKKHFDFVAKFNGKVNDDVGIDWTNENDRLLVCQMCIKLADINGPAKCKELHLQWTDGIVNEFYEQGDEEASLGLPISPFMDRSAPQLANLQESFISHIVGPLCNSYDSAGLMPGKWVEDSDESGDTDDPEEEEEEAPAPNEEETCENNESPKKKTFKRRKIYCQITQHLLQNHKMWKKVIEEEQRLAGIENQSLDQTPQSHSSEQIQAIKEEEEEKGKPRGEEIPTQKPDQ
recombinant poly(ADP-ribose) polymerase 1 (PARP1), sequence (P09874 whole entry): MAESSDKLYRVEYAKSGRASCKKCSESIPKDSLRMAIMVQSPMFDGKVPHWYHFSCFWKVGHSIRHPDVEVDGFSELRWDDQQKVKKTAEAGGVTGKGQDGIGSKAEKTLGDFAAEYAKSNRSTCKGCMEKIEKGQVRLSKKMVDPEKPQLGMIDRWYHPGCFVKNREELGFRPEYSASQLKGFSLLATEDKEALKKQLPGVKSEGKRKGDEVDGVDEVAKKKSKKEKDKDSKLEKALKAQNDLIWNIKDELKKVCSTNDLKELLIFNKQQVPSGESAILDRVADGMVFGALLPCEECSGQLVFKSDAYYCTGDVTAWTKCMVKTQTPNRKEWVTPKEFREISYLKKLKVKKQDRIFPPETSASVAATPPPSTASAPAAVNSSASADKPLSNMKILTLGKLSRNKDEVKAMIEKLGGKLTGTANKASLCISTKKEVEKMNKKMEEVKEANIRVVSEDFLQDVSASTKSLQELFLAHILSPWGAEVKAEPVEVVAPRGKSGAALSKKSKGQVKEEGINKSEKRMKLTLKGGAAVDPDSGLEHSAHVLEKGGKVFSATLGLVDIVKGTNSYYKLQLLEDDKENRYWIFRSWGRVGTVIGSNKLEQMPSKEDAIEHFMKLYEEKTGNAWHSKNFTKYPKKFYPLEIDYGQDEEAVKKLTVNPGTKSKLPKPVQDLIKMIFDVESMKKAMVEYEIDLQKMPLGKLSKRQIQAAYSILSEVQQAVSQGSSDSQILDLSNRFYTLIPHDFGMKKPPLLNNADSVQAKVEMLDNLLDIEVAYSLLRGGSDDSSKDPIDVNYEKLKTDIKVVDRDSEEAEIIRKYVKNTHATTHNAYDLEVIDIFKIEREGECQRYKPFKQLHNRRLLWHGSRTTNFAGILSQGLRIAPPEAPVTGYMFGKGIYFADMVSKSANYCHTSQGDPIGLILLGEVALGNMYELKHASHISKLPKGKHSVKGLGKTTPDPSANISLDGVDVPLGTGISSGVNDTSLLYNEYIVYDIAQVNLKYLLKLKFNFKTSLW

With `CNC(=O)c1ccc(N2CCN(Cc3ccc4c([nH]c(=O)c5ccoc54)c3F)CC2)c(C)n1` [Example 43, 7-((4-(2-methyl-6-(methylcarbamoyl)pyridin-3-yl)piperazin-1-yl)methyl)-6-fluoro-furo[3,2-c]quinolin-4(5H)-one], the half-inhibitory concentration (IC50) (as a rule, the concentration needed to halve the response being measured) worked out at 5580 nM in experiment [1]; 5.86 nM in experiment [2] (Homo sapiens, MDA-MB-436, […]); 8570 nM in experiment [3]; 0.39 nM in experiment [4].

`CNC(=O)c1ccc(N2CCN(Cc3ccc4c([nH]c(=O)c5ccoc54)c3F)CC2)c(F)n1` [Example 44, 7-((4-(2-fluoro-6-(methylcarbamoyl)pyridin-3-yl)piperazin-1-yl)methyl)-6-fluoro-furo[3,2-c]quinolin-4(5H)-one]: the IC50 in experiment [1] was determined as 898 nM; in experiment [2] (Homo sapiens, MDA-MB-436, […]) it was 3.85 nM; in experiment [3], 16500 nM; in experiment [4], 0.41 nM.

Regarding `CNC(=O)c1ccc(N2CCN(Cc3ccc4c([nH]c(=O)c5cn[nH]c54)c3F)CC2)c(F)n1` [Example 46, 7-((4-(2-fluoro-6-(methylcarbamoyl)pyridin-3-yl)piperazin-1-yl)methyl)-6-fluoro-1,5-dihydro-4H-pyrazolo[4,3-c]quinolin-4-one], the IC50 in experiment [1] was 194 nM; in experiment [2] (Homo sapiens, MDA-MB-436, […]), 16.5 nM; in experiment [3] it was more than 30000 nM; in experiment [4], 0.95 nM.

As for `CNC(=O)c1ccc(N2CCN(Cc3ccc4c([nH]c(=O)n5cccc45)c3F)CC2)c(C)n1` [Example 48, 8-((4-(2-methyl-6-(methylcarbamoyl)pyridin-3-yl)piperazin-1-yl)methyl)-7-fluoropyrrolo[1,2-c]quinazolin-5(6H)-one], the IC50 in experiment [1] was 1980 nM; in experiment [2] (Homo sapiens, MDA-MB-436, […]), 4.58 nM; in experiment [3] it was more than 30000 nM; in experiment [4], 1.76 nM.

For `CNC(=O)c1ccc(N2CCN(Cc3ccc4c([nH]c(=O)c5c(C)cnn54)c3F)CC2)c(C)n1` [Example 57, 7-((4-(2-methyl-6-(methylcarbamoyl)pyridin-3-yl)piperazin-1-yl)methyl)-6-fluoro-3-methylpyrazolo[1,5-a]quinoxalin-4(5H)-one], the IC50 in experiment [1] is more than 10000 nM; in experiment [2] (Homo sapiens, MDA-MB-436, […]) it was 10.6 nM; in experiment [3], more than 30000 nM; in experiment [4] it was 1.95 nM.

As to `CNC(=O)c1ccc(N2CCN(Cc3ccc4c([nH]c(=O)c5c(C)cnn54)c3F)CC2)c(F)n1` [Example 58, 7-((4-(2-fluoro-6-(methylcarbamoyl)pyridin-3-yl)piperazin-1-yl)methyl)-6-fluoro-3-methylpyrazolo[1,5-a]quinoxalin-4(5H)-one], the 50% inhibitory concentration (IC50) was more than 10000 nM in experiment [1]; 2.99 nM in experiment [2] (Homo sapiens, MDA-MB-436, […]); more than 30000 nM in experiment [3]; 1.38 nM in experiment [4].

Regarding `CCNC(=O)c1ccc(N2CCN(Cc3ccc4c([nH]c(=O)c5occc54)c3F)CC2)c(F)n1` [Example 66, 7-((4-(2-fluoro-6-(ethylcarbamoyl)pyridin-3-yl)piperazin-1-yl)methyl)-6-fluorofuro[2,3-c]quinolin-4(5H)-one], the IC50 in experiment [1] came out at 5000 nM; in experiment [2] (Homo sapiens, MDA-MB-436, […]), 3.4 nM; in experiment [3], 16600 nM; in experiment [4], 1.72 nM.

For the compound `CNC(=O)c1ccc(N2CCN(Cc3ccc4c([nH]c(=O)c5occc54)c3F)CC2)c(Cl)n1` [Example 68, 7-((4-(2-chloro-6-(methylcarbamoyl)pyridin-3-yl)piperazin-1-yl)methyl)-6-fluorofuro[2,3-c]quinolin-4(5H)-one], the half-maximal inhibitory concentration (IC50) in experiment [1] amounted to 1870 nM; in experiment [2] (Homo sapiens, MDA-MB-436, […]), 4.72 nM; in experiment [3] it was 22000 nM; in experiment [4], 0.52 nM.

`CNC(=O)c1ccc(N2CCN(Cc3ccc4c([nH]c(=O)c5cnn(C)c54)c3F)CC2)c(F)n1` [Example 92, 6-fluoro-7-((4-(2-fluoro-6-(methylcarbamoyl)pyridin-3-yl)piperazin-1-yl)methyl)-1-methyl-1,5-dihydro-4H-pyrazolo[4,3-c]quinolin-4-one]: the 50% inhibitory concentration (IC50) in experiment [1] is 199 nM; in experiment [2] (Homo sapiens, MDA-MB-436, […]), 3.48 nM; in experiment [3] it was more than 30000 nM; in experiment [4], 0.44 nM.

`CNC(=O)c1ccc(N2CCN(Cc3ccc4c([nH]c(=O)c5nn(C)cc54)c3F)CC2)c(F)n1` [Example 93, 6-fluoro-7-((4-(2-fluoro-6-(methylcarbamoyl)pyridin-3-yl)piperazin-1-yl)methyl)-2-methyl-2,5-dihydro-4H-pyrazolo[3,4-c]quinolin-4-one]: the half-maximal inhibitory concentration (IC50) in experiment [2] (Homo sapiens, MDA-MB-436, […]) is 3.76 nM; in experiment [3], more than 30000 nM.

`CNC(=O)c1ccc(N2CCN(Cc3cc4[nH]c(=O)c5occc5c4cc3F)CC2)c(F)n1` [Example 102, 7-((4-(2-fluoro-6-(methylcarbamoyl)pyridin-3-yl)piperazin-1-yl)methyl)-8-fluorofuro[2,3-c]quinolin-4(5H)-one]: the IC50 was 1330 nM in experiment [1]; 5.5 nM in experiment [2] (Homo sapiens, MDA-MB-436, […]); more than 30000 nM in experiment [3]; 1.89 nM in experiment [4].

Turning to `CNC(=O)c1ccc(N2CCN(Cc3ccc4c(c3)[nH]c(=O)c3occc34)CC2)c(F)n1` [Example 112, 7-((4-(2-fluoro-6-(methylcarbamoyl)pyridin-3-yl)piperazin-1-yl)methyl)furo[2,3-c]quinolin-4(5H)-one], the half-maximal inhibitory concentration (IC50) stood at 158 nM in experiment [1]; 0.58 nM in experiment [2] (Homo sapiens, MDA-MB-436, […]); 1300 nM in experiment [3]; 0.26 nM in experiment [4].

On to `CNC(=O)c1ccc(N2CCN(Cc3ccc4c([nH]c(=O)c5cocc54)c3F)CC2)c(F)n1` [Example 115, 7-((4-(2-fluoro-6-(methylcarbamoyl)pyridin-3-yl)piperazin-1-yl)methyl)-6-fluorofuro[3,4-c]quinolin-4(5H)-one], for which the concentration for half-maximal inhibition (IC50) worked out at 340 nM in experiment [1]; 3.41 nM in experiment [2] (Homo sapiens, MDA-MB-436, […]); 13800 nM in experiment [3]; 0.47 nM in experiment [4].

As for `CNC(=O)c1ccc(N2CCN(Cc3ccc4c([nH]c(=O)c5c(F)cnn54)c3F)CC2)c(C)n1` [Example 121, 7-((4-(2-methyl-6-(methylcarbamoyl)pyridin-3-yl)piperazin-1-yl)methyl)-3,6-difluoropyrazolo[1,5-a]quinoxalin-4(5H)-one], the half-maximal inhibitory concentration (IC50) was 2820 nM in experiment [1]; 1.72 nM in experiment [2] (Homo sapiens, MDA-MB-436, […]); 10500 nM in experiment [3]; 1.06 nM in experiment [4].

Turning to `CNC(=O)c1ccc(N2CCN(Cc3ccc4c([nH]c(=O)c5c(F)cnn54)c3F)CC2)c(F)n1` [Example 122, 7-((4-(2-fluoro-6-(methylcarbamoyl)pyridin-3-yl)piperazin-1-yl)methyl)-3,6-difluoropyrazolo[1,5-a]quinoxalin-4(5H)-one], the IC50 in experiment [1] is 462 nM; in experiment [2], 1.32 nM; in experiment [3] it was more than 30000 nM; in experiment [4], 0.53 nM.

In the case of `Cc1cnn2c1c(=O)[nH]c1c(F)c(CN3CCN(c4ccc(C(=O)NC5CC5)nc4F)CC3)ccc12` [Example 126, 7-((4-(2-fluoro-6-(cyclopropylcarbamoyl)pyridin-3-yl)piperazin-1-yl)methyl)-6-fluoro-3-methylpyrazolo[1,5-a]quinoxalin-4(5H)-one], the 50% inhibitory concentration (IC50) in experiment [1] is 731 nM; in experiment [2] (Homo sapiens, MDA-MB-436, […]), 4.5 nM; in experiment [3], more than 25000 nM; in experiment [4], 0.48 nM.

As to `CNC(=O)c1ccc(N2CCN(Cc3ccc4c([nH]c(=O)c5c(C)cnn54)c3F)CC2)c(C#N)n1` [Example 128, 7-((4-(2-cyano-6-(methylcarbamoyl)pyridin-3-yl)piperazin-1-yl)methyl)-6-fluoro-3-methylpyrazolo[1,5-a]quinoxalin-4(5H)-one], the IC50 in experiment [1] was 2500 nM; in experiment [2] (Homo sapiens, MDA-MB-436, […]) it was 1.58 nM; in experiment [3], more than 30000 nM; in experiment [4], 0.48 nM.

Turning to `Cc1cnn2c1c(=O)[nH]c1c(F)c(CN3CCN(c4ccc(C(=O)NCC(F)F)nc4F)CC3)ccc12` [Example 129, 7-((4-(2-fluoro-6-(2,2-difluoroethylcarbamoyl)pyridin-3-yl)piperazin-1-yl)methyl)-6-fluoro-3-methylpyrazolo[1,5-a]quinoxalin-4(5H)-one], the IC50 in experiment [1] was more than 10000 nM; in experiment [2] (Homo sapiens, MDA-MB-436, […]) it was 5.02 nM; in experiment [3], more than 30000 nM; in experiment [4], 0.5 nM.

For the compound `CNC(=O)c1ccc(N2CCN(Cc3ccc4c([nH]c(=O)c5c(C)cnn54)c3F)CC2)c(Cl)n1` [Example 131, 7-((4-(2-chloro-6-(methylcarbamoyl)pyridin-3-yl)piperazin-1-yl)methyl)-6-fluoro-3-methylpyrazolo[1,5-a]quinoxalin-4(5H)-one], the IC50 in experiment [2] (Homo sapiens, MDA-MB-436, […]) is 3.12 nM; in experiment [3], more than 30000 nM.

For `CNC(=O)c1ccc(N2CCN(Cc3ccc4c([nH]c(=O)c5c(C)cnn54)c3F)CC2)c(C(F)(F)F)n1` [Example 133, 7-((4-(2-trifluoromethyl-6-(methylcarbamoyl)pyridin-3-yl)piperazin-1-yl)methyl)-6-fluoro-3-methylpyrazolo[1,5-a]quinoxalin-4(5H)-one], the half-inhibitory concentration (IC50) in experiment [1] is more than 10000 nM; in experiment [2] (Homo sapiens, MDA-MB-436, […]), 23 nM; in experiment [3], more than 30000 nM; in experiment [4], 0.57 nM.

Take `[2H]C([2H])([2H])NC(=O)c1ccc(N2CCN(Cc3ccc4c([nH]c(=O)c5c(C)cnn54)c3F)CC2)c(F)n1` [Example 159, 6-fluoro-7-((4-(2-fluoro-6-((methyl-d3)carbamoyl)pyridin-3-yl)piperazin-1-yl)methyl)-3-methylpyrazolo[1,5-a]quinoxalin-4(5H)-one]: the IC50 was 3.91 nM in experiment [2] (Homo sapiens, MDA-MB-436, […]) and more than 30000 nM in experiment [3].

Take `CNC(=O)c1ccc(N2CCN(Cc3ccc4c([nH]c(=O)c5c(F)cnn54)c3Cl)CC2)c(F)n1` [Example 192, 3-fluoro-7-((4-(2-fluoro-6-(methylcarbamoyl)pyridin-3-yl)piperazin-1-yl)methyl)-6-chloropyrazolo[1,5-a]quinoxalin-4(5H)-one]: the IC50 in experiment [2] (Homo sapiens, MDA-MB-436, […]) was 5.58 nM; in experiment [3] it was more than 30000 nM.
